{"source": "paper PMC7182277", "about": "“Characterizing Emerging Canine H3 Influenza Viruses” (PLoS Pathogens, 2020)", "key": {"NA of rCIV-1177": {"molecular_target": "NA of rCIV-1177 (Influenza A virus, UniProt A0A2D0WZJ5)", "assay_type": "biochemical", "details": "read-out: NA enzyme inhibition assay (Mean IC50 ± SD)"}, "NA of CIV-41915": {"molecular_target": "NA of CIV-41915 (Influenza A virus, UniProt A0A0H3YBU9)", "assay_type": "biochemical, canine H3N2 influenza A virus (A/canine/Illinois/41915/2015)", "details": "read-out: NA enzyme inhibition assay (Mean IC50 ± SD)"}, "NA of Beth15": {"molecular_target": "NA of Beth15 (Influenza A virus, UniProt A0A193ACB1)", "assay_type": "biochemical, human H3N2 influenza A virus (A/Bethesda/55/2015)", "details": "read-out: NA enzyme inhibition assay (Mean IC50 ± SD)"}, "rCIV-1177": {"test_system": "rCIV-1177", "assay": "microbe, parasite or virus in culture", "assay_type": "cell-based", "details": "Influenza A virus, MDCK, in Canis lupus familiaris, read-out: Phenotypic assay (Mean IC50 ± SD)"}, "Beth15": {"test_system": "Beth15", "assay": "microbe, parasite or virus in culture", "assay_type": "cell-based, human H3N2 influenza A virus (A/Bethesda/55/2015)"}, "CIV-41915": {"test_system": "CIV-41915", "assay": "microbe, parasite or virus in culture", "assay_type": "cell-based, canine H3N2 influenza A virus (A/canine/Illinois/41915/2015)", "details": "Influenza A virus, MDCK, in Canis lupus familiaris, read-out: Phenotypic assay (Mean IC50 ± SD)"}}, "note": "Counter-ions that a name gives are not always drawn.", "data": [{"smiles": "CCC(CC)[C@H](NC(C)=O)[C@@H]1[C@H](O)[C@@H](C(=O)O)C[C@H]1N=C(N)N", "note": "[Peramivir, peramivir]", "values": [{"measurement": "IC50", "setting": "NA of rCIV-1177", "value": "0.19 ± 0.02", "unit": "nM"}, {"measurement": "IC50", "setting": "NA of CIV-41915", "value": "0.15 ± 0.02", "unit": "nM"}, {"measurement": "IC50", "setting": "NA of Beth15", "value": "0.12 ± 0.02", "unit": "nM"}]}, {"smiles": "NC12CC3CC(CC(C3)C1)C2", "note": "[Amantadine, amantadine hydrochloride]", "values": [{"measurement": "IC50", "setting": "rCIV-1177", "value": "300 ± 100", "unit": "nM"}, {"measurement": "Phenotypic assay (Mean IC50 ± SD)", "setting": "Beth15", "value": "resistant"}, {"measurement": "IC50", "setting": "Beth15; Influenza A virus, MDCK, read-out: Phenotypic assay (Mean IC50 ± SD)", "value": "> 100000", "unit": "nM"}, {"measurement": "IC50", "setting": "CIV-41915", "value": "600 ± 100", "unit": "nM"}]}, {"smiles": "CCC(CC)O[C@@H]1C=C(C(=O)O)C[C@H](N)[C@H]1NC(C)=O", "note": "[Oseltamivir carboxylate, oseltamivir carboxylate]", "values": [{"measurement": "IC50", "setting": "NA of rCIV-1177", "value": "0.2 ± 0.01", "unit": "nM"}, {"measurement": "IC50", "setting": "NA of CIV-41915", "value": "0.13 ± 0.01", "unit": "nM"}]}]}
